B1: PEG-ADA: PEGylated adenosine deaminase (protein, UniProt P56658 2-363, looked up)
Adenosine deaminase: AQTPAFNKPKVELHVHLDGAIKPETILYYGRKRGIALPADTPEELQNIIGMDKPLSLPEFLAKFDYYMPAIAGCREAVKRIAYEFVEMKAKDGVVYVEVRYSPHLLANSKVEPIPWNQAEGDLTPDEVVSLVNQGLQEGERDFGVKVRSILCCMRHQPSWSSEVVELCKKYREQTVVAIDLAGDETIEGSSLFPGHVKAYAEAVKSGVHRTVHAGEVGSANVVKEAVDTLKTERLGHGYHTLEDATLYNRLRQENMHFEVCPWSSYLTGAWKPDTEHPVVRFKNDQVNYSLNTDDPLIFKSTLDTDYQMTKNEMGFTEEEFKRLNINAAKSSFLPEDEKKELLDLLYKAYGMPSPASAEQCL
modifications: PEGylated
notes: PEGylated adenosine deaminase

Experiments:
[1] = tested on: Experimental Autoimmune Encephalomyelitis (EAE); test: MOG-induced EAE induction and daily scoring; format: in vivo, mice
Text: Cd73^−/− mice have been previously described (Thompson et al., “Crucial Role for Ecto-5′-Nucleotidase (CD73) in Vascular Leakage During Hypoxia,” J. Exp. Med. 200:1395-1405 (2004), which is hereby incorporated by reference in its entirety) and have been backcrossed to C57BL/6 for 14 generations. Cd73 mice have no overt susceptibility to infection and appear normal based on the size and cellular composition of their lymphoid organs and their T and B cell responses in in vivo and in vitro assays (Thompson et al., “Crucial Role for Ecto-5′-Nucleotidase (CD73) in Vascular Leakage During Hypoxia,” J. Exp. Med. 200:1395-1405 (2004), which is hereby incorporated by reference in its entirety). C57BL/6 and tcrα^−/− mice on the C57BL/6 background were purchased from The Jackson Laboratories. Mice were bred and housed under specific pathogen-free conditions at Cornell University or the University of Turku. For adenosine receptor blockade experiments, mice were given drinking water supplemented with 0.6 g/L of caffeine (Sigma) or 2 mg/kg SCH58261 (1 mg/kg s.c. and 1 mg/kg i.p.) in DMSO (45% vol. in PBS) or 45% DMSO alone starting 1 day before EAE induction and continuing throughout the experiment. All procedures performed on mice were approved by the relevant animal review committee.
EAE was induced by subjecting mice to the myelin oligodendrocyte glycoprotein (“MOG”) EAE-inducing regimen as described in Swanborg, “Experimental Autoimmune Encephalomyelitis in Rodents as a Model for Human Demyelinating Disease,” Clin. Immunol. Immunopathol. 77:4-13 (1995) and Bynoe et al., “Epicutaneous Immunization with Autoantigenic Peptides Induces T Suppressor Cells that Prevent Experimental Allergic Encephalomyelitis,” Immunity 19:317-328 (2003), which are hereby incorporated by reference in their entirety. Briefly, a 1:1 emulsion of MOG35-55 peptide (3 mg/ml in PBS) (Invitrogen) and complete Freund's adjuvant (CFA, Sigma) was injected subcutaneously (50 μl) into each flank. Pertussis toxin (PTX, 20 ng) (Biological Laboratories Inc.) was given intravenously (200 μl in PBS) at the time of immunization and again 2 days later. Mice were scored daily for EAE based on disease symptom severity; 0=no disease, 0.5-1=weak/limp tail, 2=limp tail and partial hind limb paralysis, 3=total hind limb paralysis, 4=both hind limb and fore limb paralysis, 5=death. Mice with a score of 4 were euthanized.

blood brain barrier = test: FITC-Dextran extravasation through the brain endothelium (brain sections); format: in vivo, mice; conditions: 10,000 MW FITC Dextran IP, 30 minutes
Procedure: In order to examine the effects of caffeine, a general adenosine receptor antagonist, on blood brain barrier permeability, mice were fed caffeine for several days and then injected with FITC Dextran, commonly used to assess endothelial permeability.
More particularly, mice were fed 0.6 g/l caffeine (Sigma, St. Louis, Mo.) in water or regular water ad lib for five days. Mice were injected IP with FITC Dextran (10,000 MW, Molecular Probes, Eugene, Oreg.) and after 30 minutes mice were perfused with ice cold PBS via the left ventricle. Brains were removed and snap frozen in OCT (Tissue Tek, Torrance, Calif.) and stored at −80° C. until sectioning. Tissue sections (5 μm) were stained with hematoxylin for light microscopy and with DAPI for a fluorescent counterstain.

Molecule	EAE development ([1]; cd73−/− mice, caffeine 0.6 g/L in drinking water)	EAE development ([1]; wild type mice, caffeine 0.6 g/L in drinking water from 1 day prior to and throughout EAE experiment)	FITC-Dextran extravasation across the blood brain barrier (blood brain barrier; CD73−/− mice fed 0.6 g/l caffeine for five days, compared with wild type mice)	FITC-Dextran extravasation across the blood brain barrier (blood brain barrier; wild type mice (caffeine feeding experiment), compared with CD73−/− mice)	development of EAE (mean EAE score) ([1]; wild-type mice, 15 units/kg body weight i.p. every 4 days, vs PBS vehicle)
Cn1c(=O)c2c(ncn2C)n(C)c1=O [caffeine]	did not develop EAE	dramatically protected against EAE development	less FITC-Dextran extravasation	more FITC-dextran extravasation	
B1					inhibits the development of EAE

— US20110262442A1, “COMPOSITIONS FOR TREATING CNS DISORDERS” (Adenios, Inc., priority 2009, published 2011)
